In EP4711369A1, “1H-[1,2,3]TRIAZOLO[4,5-H]QUINAZOLINE COMPOUNDS AS PROTEIN KINASE INHIBITORS” (Chengdu Cynogen Bio-Pharmaceutical Technology Co., Ltd., priority 2023, dated 2024):
pIC50: −log10 of the molar value.

Legend:
[1] = test system: Human ovarian cancer OVCAR-3 cells; test: OVCAR-3 tumor model; type: in vivo; details: female NOD-SCID mice, p.o. 5, 10 and 15 mg/kg twice daily, 22 days, Fig. 3
Protocol: Human ovarian cancer OVCAR-3 cells were cultured in RPMI 1640 medium containing 20% FBS at 37 °C and 5% CO2 in an incubator. Matrigel was mixed with serum-free RPMI 1640 medium at a ratio of 1:1, and then the mixture was used to resuspend the OVCAR-3 cancer cells at 2 × 10^7 cells/0.2 ml. Then, the cells were inoculated subcutaneously into the right rib area of female NOD-SCID mice. When the volume of tumors reached approximately 100-150 mm^3, the mice were randomly divided into groups for treatment, with six animals per group. The compound of example I-10 was prepared in a 20% aqueous solution of hydroxypropyl-gamma-cyclodextrin containing an equivalent amount of hydrochloric acid, and administered by oral gavage (p.o.) at dosages of 5, 10, and 15 (mg/kg) twice daily, 8 hours apart, for a total of 22 days. The PF06873600 treatment group was used as a positive control, and the untreated group was given solvent by oral gavage. The tumor volume was measured twice a week using a vernier caliper by measuring the long and short diameters of a tumor. The formula for calculating a tumor volume was: volume (mm^3) = (long diameter (mm) × short diameter (mm) × short diameter (mm)/2. The mice were weighed daily.
The therapeutic effect of a drug was evaluated using the tumor growth inhibition (TGI%).

CDK9/cyclin T1 = CDK9/cyclin T1 (Homo sapiens, UniProt P50750); test: Assay of kinase activity (ADP-Glo); type: biochemical; details: kinase inhibitory activity
In short: (§1)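 Human CDK6/cyclin D3 and CDK9/cyclin T1 preincubated 10 min at 25 °C with compound in 50 mM Hepes, 10 mM MgCl2, 0.01% Brij35, 2 mM DTT, then reacted 60 min at 25 °C with substrate and ATP. ADP formed measured by ADP-Glo luminescence; IC50 from nonlinear concentration-response fitting.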

CDK6/cyclin D3 = CDK6/cyclin D3 (Homo sapiens, UniProt Q00534); test: Assay of kinase activity (ADP-Glo); type: biochemical; details: kinase inhibitory activity
In short: as §1

Sequence of CDK6/cyclin D3 (Q00534 whole entry, species assumed): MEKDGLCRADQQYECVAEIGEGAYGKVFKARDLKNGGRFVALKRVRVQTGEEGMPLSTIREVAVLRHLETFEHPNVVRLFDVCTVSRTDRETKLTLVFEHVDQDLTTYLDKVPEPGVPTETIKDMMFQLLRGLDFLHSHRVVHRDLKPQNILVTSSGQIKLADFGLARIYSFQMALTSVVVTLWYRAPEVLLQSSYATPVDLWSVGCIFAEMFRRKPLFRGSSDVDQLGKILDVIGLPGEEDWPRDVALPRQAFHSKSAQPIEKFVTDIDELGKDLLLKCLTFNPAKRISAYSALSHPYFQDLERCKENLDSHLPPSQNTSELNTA
Sequence of CDK6/cyclin D3 (P30281 whole entry partner, species assumed): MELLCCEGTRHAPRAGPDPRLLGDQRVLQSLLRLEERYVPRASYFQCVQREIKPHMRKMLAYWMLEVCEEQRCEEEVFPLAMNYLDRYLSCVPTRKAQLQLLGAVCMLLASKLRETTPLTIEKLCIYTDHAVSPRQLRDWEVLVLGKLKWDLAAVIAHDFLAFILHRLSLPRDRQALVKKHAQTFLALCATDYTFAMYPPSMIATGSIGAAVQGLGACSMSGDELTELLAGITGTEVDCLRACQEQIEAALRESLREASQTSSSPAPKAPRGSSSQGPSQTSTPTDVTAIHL
Sequence of CDK9/cyclin T1 (P50750 whole entry, species assumed): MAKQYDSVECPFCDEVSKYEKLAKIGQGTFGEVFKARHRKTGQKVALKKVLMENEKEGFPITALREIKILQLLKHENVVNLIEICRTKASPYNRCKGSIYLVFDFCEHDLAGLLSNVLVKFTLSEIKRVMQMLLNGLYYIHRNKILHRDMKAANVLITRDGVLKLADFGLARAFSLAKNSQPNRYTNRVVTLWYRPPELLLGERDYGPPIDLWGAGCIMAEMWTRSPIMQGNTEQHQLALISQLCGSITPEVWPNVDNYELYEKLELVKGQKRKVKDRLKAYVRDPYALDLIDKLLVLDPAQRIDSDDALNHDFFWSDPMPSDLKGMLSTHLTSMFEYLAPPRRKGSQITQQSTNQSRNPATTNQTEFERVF
Sequence of CDK9/cyclin T1 (O60563 whole entry partner, species assumed): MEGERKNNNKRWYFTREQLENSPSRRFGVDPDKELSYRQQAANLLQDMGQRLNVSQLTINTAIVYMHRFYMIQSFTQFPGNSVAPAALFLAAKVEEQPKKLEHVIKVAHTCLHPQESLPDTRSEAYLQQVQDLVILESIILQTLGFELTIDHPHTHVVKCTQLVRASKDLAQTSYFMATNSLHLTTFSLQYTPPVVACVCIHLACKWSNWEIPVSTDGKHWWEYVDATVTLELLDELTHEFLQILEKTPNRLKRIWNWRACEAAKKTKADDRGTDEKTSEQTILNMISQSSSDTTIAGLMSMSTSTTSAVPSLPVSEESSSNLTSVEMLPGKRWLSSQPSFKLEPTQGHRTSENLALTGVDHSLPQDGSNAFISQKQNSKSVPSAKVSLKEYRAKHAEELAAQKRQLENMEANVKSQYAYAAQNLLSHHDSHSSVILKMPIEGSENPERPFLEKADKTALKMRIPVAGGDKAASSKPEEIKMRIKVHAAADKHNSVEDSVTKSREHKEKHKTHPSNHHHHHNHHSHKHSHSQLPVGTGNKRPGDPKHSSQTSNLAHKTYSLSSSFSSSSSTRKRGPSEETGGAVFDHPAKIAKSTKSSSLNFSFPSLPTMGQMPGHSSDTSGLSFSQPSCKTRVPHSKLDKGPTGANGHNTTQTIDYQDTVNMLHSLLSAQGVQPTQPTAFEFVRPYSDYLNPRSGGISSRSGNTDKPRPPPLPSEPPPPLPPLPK

CC(C)n1nnc2ccc3cnc(Nc4ccc(C(=O)N5CC[C@H](N(C)C)C5)cc4)nc3c21 [Example I-10, (S)-(3-(Dimethylamino)pyrrolidin-1-yl)(4-((1-isopropyl-1H-[1,2,3]triazolo[4,5-H]quinazolin-8-yl)amino)phenyl)metha none]
growth inhibitory effect on the OVCAR-3 tumor model (TGI%) [1]: dose-dependent relationship
pIC50 (CDK9/cyclin T1): 8.70
pIC50 (CDK6/cyclin D3): 8.40
